# Laboratory results from PubChem BioAssay (NCI).
# “And” between values parts separate entries of the source, which are not always exact repeats. Equal values may be shown once.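 Results reflect a 48-hour exposure of cells in 96-well plates to compound at five concentrations. The concentration for 50% growth inhibition is given as GI50. The concentration for full growth arrest is given as TGI.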
# Tests used:
# Assay in all cases: NCI-60 cell line screen, 48 h
# T-47D breast = system: T-47D breast
# K-562 leukemia = system: K-562 leukemia
# HCC-2998 colon = system: HCC-2998 colon
# BT-549 breast = system: BT-549 breast
# NCI/ADR-RES ovarian = system: NCI/ADR-RES ovarian
# MOLT-4 leukemia = system: MOLT-4 leukemia
# MCF7 breast = system: MCF7 breast
# COLO 205 colon = system: COLO 205 colon
Compound,GI50 (T-47D breast) [µM],TGI (T-47D breast) [µM],GI50 (K-562 leukemia) [µM],TGI (K-562 leukemia) [µM],GI50 (HCC-2998 colon) [µM],TGI (HCC-2998 colon),GI50 (BT-549 breast) [µM],TGI (BT-549 breast),GI50 (NCI/ADR-RES ovarian) [µM],TGI (NCI/ADR-RES ovarian),GI50 (MOLT-4 leukemia) [µM],TGI (MOLT-4 leukemia) [µM],GI50 (MCF7 breast) [µM],TGI (MCF7 breast) [µM],GI50 (COLO 205 colon) [µM],TGI (COLO 205 colon)
O=C(c1nc2ccccc2[nH]1)C1C(c2cccc([N+](=O)[O-])c2)C2CC3CCCCC3N2[C@@]12C(=O)Nc1cc(Cl)ccc12 (stereo partly specified),0.998,> 100,2.6,> 100,1.88,3.83 µM,1.77,4.36 µM,2.51,8.18 µM,2.38,10.1,1.95,7.11,–,–
Cc1c(-c2ccnc(N)n2)c2c(n1-c1ccccc1)C(=O)c1ccccc1C2=O,51.4,> 100,3.78,25.5,19.7,46.5 µM,6.3,29.9 µM,15.8,66.8 µM,–,–,–,–,44,> 100 µM
CCCCOc1nc2ccccc2cc1C1CNC(=O)c2ccccc2N1 (stereo unspecified),5.55,> 100,1.26,14.2,3.68,21.5 µM,4.17,23.2 µM,2.12,8.76 µM,2.95,13.5,2.23,15.4,2.39,5.63 µM
CC(=O)O[C@H]1Cc2c([nH]c3ccccc23)[C@@H](c2ccc(Cl)cc2)N1C(=O)CCNC(C)(C)C,3.6,8.36,3.08,10.1,3.65,7.85 µM,4,8.27 µM,5.57,12.2 µM,2.16,8.99,3.25,7.74,3.47,7.7 µM
Nc1ccc(Sc2ccc3c4c2cccc4c(=O)n2c4ccccc4nc32)cc1,3.87,33.4,4.93,> 100,10.1,> 100 µM,6.06,56.3 µM,5.95,62.8 µM,2.57,7.68,2.71,35.3,7.24,27.2 µM
Cc1cccc(Cc2cnc(NC(=O)/C=C/c3ccco3)s2)c1,0.033,> 100,0.0347,> 100,0.135,> 100 µM,0.174,> 100 µM,0.0364,> 100 µM,0.0561,> 100,0.0331,> 100,0.0438,1.23 µM
S=C1NC2=C(CCOc3c2ccc2ccccc32)C(c2ccc(Cl)cc2)N1 (stereo unspecified),3.36,17.2,42.9,> 100,–,–,25.8,91.9 µM,31.9,> 100 µM,25.2,> 100,16.2,> 100,24.5,> 100 µM
Cc1ccc(/C=C2\CN(C(=O)CCN3CCC(=NO)CC3)C/C(=C\c3ccc(C)cc3)C2=O)cc1,–,–,–,–,1.57,3.18 µM,–,–,–,–,–,–,–,–,–,–
Clc1ccc2c(NCCNc3nc(Cl)nc4ccccc34)ccnc2c1,1.39,3.34,0.255,0.614,1.62,3.18 µM,1.81,3.72 µM,2.5,7.24 µM,0.332,1.25,–,–,0.863,2.32 µM
COc1ccc(C(=O)C(CN(C)C)c2ccccc2)cc1 (stereo unspecified),2.75,9.01,4.17,> 100,2.28,3.94 µM,1.76,4.56 µM,2.7,6.97 µM,4.41,> 100,1.9,5.98,2.26,4.21 µM
N#CSc1cc(-c2nc3ccccc3o2)ccc1N,7.5,90,2.55,> 89.3,22.6,> 100 µM,23.8,> 60.9 µM,22.2,87.5 µM,4.09,22.1,14.5,> 84.8,40.5,> 100 µM
COc1cc2cc(C(=O)N3C[C@H](CCl)c4c3cc(O)c3ccccc43)[nH]c2c(OC)c1OC,0.0256,0.362,0.046,–,0.0286,0.654 µM and 1.13 µM,0.0312,1.56 µM and 0.46 µM,1.34,0.563 µM and 4.62 µM,< 0.01,6.22,< 0.01,10.2,0.118,1.8 µM and 0.483 µM
c1ccc2c(Nc3ccc4c(c3)OCO4)c3ccoc3nc2c1,29.3,> 100,3.27,27.8,12.5,29.6 µM,–,–,7.66,75.5 µM,5.69,> 100,12.6,> 100,20.2,> 100 µM
CCN(CC)c1ccc(/C=C2/NC(=O)NC2=O)cc1,4.09,> 71.5,0.671,> 100,16.2,> 100 µM,7.49,> 100 µM,1.93,12.2 µM,17.6,> 100,2.84,> 100,4.63,23.6 µM
Cn1cc(C2=C(c3cn(C)c4cc(Cl)ccc34)C(=O)NC2=O)c2ccccc21,–,–,0.089,> 25,0.203,> 11.7 µM,0.623,> 25 µM,0.0761,–,0.345,> 25,0.0972,> 25,0.07,0.18 µM
c1ccc(-c2nn(-c3ccccc3)[n+](-c3ccccc3-c3ccccc3)n2)cc1,0.974,> 42.1,0.456,15.3,0.94,17.3 µM,0.461,7.87 µM,> 78.7,> 100 µM,1.8,17.6,0.462,11.5,0.205,0.856 µM
